Measurements taken from patent US20140128606A1, “ANTIPRURITIC AGENT” (Toray Industries, Inc., priority 2011, published 2014).
Where a name gives a salt, the structure may show the parent alone.

Key:
[1] = system: substance P-induced scratching behavior; test: Inhibitory effect on substance P-induced scratching behavior in mice (MicroAct automatic detection); format: in vivo, mouse; settings: substance P 250 nmol/site; for Number of scratching behavior (means ± standard error): i.p., counted for 15 minutes
Description: Substance P-induced scratching behavior in mice which is an intractable pruritus model was induced by the method described in a known document (Togashi et al., European Journal of Pharmacology, 2002, Vol. 435, p. 259 and the like). Further, evaluation of the scratching behavior was objectively carried out by automatic detection using MicroAct (NeuroScience, Inc.) based on the method described in a known document (Hashimoto et al., Allergology International, 2004, Vol. 53, p. 349).
More particularly, at least five days before the evaluation of drug effect, neodymium magnets (diameter: 1 mm, length: 3 mm) coated with Parafilm were subcutaneously inserted into the insteps of both hind limbs of 5 to 7 week-old male ICR mouse (Japan SLC, Inc.) under isoflurane anesthesia. One or two days before the day of the evaluation of drug effect, the hair of the rostral part of the back of the mouse was shaved with a hair clipper under isoflurane anesthesia. At least one hour before the start of the measurement of the number of scratching behavior, each mouse (6 to 8 weeks old) was individually placed in a chamber for measurement (diameter: 11 cm, height: 18 cm) for acclimation. After the acclimation, substance P (5 mmol/L) or phosphate-buffered saline (hereinafter referred to as PBS) as a solvent thereof was intradermally administered (0.05 mL/site) into the rostral part of the back, and the measurement of the number of scratching behavior was started immediately after the administration. The number of scratching behavior was recorded by amplifying electric current induced by the movement of the magnets inserted in the hind limbs in a round coil surrounding the chamber for measurement. The measurement was carried out under unattended environment, and the evaluation of the drug effect was carried out by using the number of scratching behavior occurred for 15 minutes after the start of the measurement as an index.
A test compound or a solvent thereof was administered in an amount of 10 mL/kg 30 to 60 minutes before the start of the measurement of the number of scratching behavior. Varenicline tartrate (Tocris Bioscience) was dissolved in PBS and intraperitoneally administered in a dose of 1, 3 or 10 mg/kg 60 minutes before the start of the measurement of the number of scratching behavior. N-(1-azabicyclo[2.2.2]oct-3(R)-yl)-4-chlorobenzamide hydrochloride (PNU-282987) hydrate (Sigma-Aldrich) was dissolved in PBS and intraperitoneally administered in a dose of 0.3 or 1 mg/kg 45 minutes before the start of the measurement of the number of scratching behavior. The compound of Reference Example 1 was dissolved in PBS and intraperitoneally administered in a dose of 0.1 or 0.3 mg/kg 30 minutes before the start of the measurement of the number of scratching behavior. The compound of Reference Example 2 was dissolved in PBS and intraperitoneally administered in a dose of 1, 3, or 10 mg/kg 45 minutes before the start of the measurement of the number of scratching behavior. The compound of Reference Example 3 was dissolved in distilled water and orally administered in a dose of 1, 3, or 10 mg/kg 30 minutes before the start of the measurement of the number of scratching behavior. The compound of Reference Example 4 was dissolved in PBS and intraperitoneally administered in a dose of 1, 3, or 10 mg/kg 45 minutes before the start of the measurement of the number of scratching behavior. The compound of Reference Example 5 was dissolved in PBS and intraperitoneally administered in a dose of 1, 3, or 10 mg/kg 30 minutes before the start of the measurement of the number of scratching behavior. The compound of Reference Example 6 was dissolved in PBS and intraperitoneally administered in a dose of 1, 3, or 10 mg/kg, 30 minutes before the start of the measurement of the number of scratching behavior. […]

[2] = system: substance P-induced scratching behavior; test: Effect of nicotinic acetylcholine receptor antagonist (mecamylamine hydrochloride) on inhibition of substance P-induced scratching behavior by varenicline; format: in vivo, mouse; settings: varenicline tartrate 3 mg/kg + mecamylamine hydrochloride 3 mg/kg, i.p., 60 minutes before; substance P 250 nmol/site
Protocol: The induction and measurement of the number of substance P-induced scratching behavior were carried out by the same method as described in Example 1.
Varenicline tartrate (0.3 mg/mL, Tocris Bioscience), mecamylamine hydrochloride (0.3 mg/mL, Tocris Bioscience), a mixed solution of varenicline tartrate and mecamylamine hydrochloride (both 0.3 mg/mL), or PBS which was a solvent thereof, was intraperitoneally administered in an amount of 10 mL/kg 60 minutes before the start of the measurement of the number of scratching behavior.
With regard to statistical processing, Student's t-test was performed when variances were homogeneity by F-test, and Aspin-Welch test was performed when variances were heterogeneity. A level of significance was set to 5% (two-tailed).
The vertical axis indicates the number of scratching behavior occurred for 15 minutes (mean±standard error, n=5 to 8). […]

Structure (SMILES): c1cnc2cc3c(cc2n1)C1CNCC3C1 [Varenicline tartrate, 7,8,9,10-tetrahydro-6H-6,10-methanopyrazino[2,3-h][3]benzazepine, reference compound]
- inhibition at 1 mg/kg ([1]; Mus musculus, ip, 1 mg/kg, read-out: Inhibition rate): 15%
- inhibition at 3 mg/kg ([1]; Mus musculus, ip, 3 mg/kg, read-out: Inhibition rate): 64%
- inhibition at 10 mg/kg ([1]; Mus musculus, ip, 10 mg/kg, read-out: Inhibition rate): 101%
- Number of scratching behavior (means ± standard error) ([1]; 1 mg/kg): 103 ± 19
- Number of scratching behavior (means ± standard error) ([1]; 3 mg/kg): 54 ± 7
- Number of scratching behavior (means ± standard error) ([1]; 10 mg/kg): 17 ± 3
- Effect of inhibiting the substance P-induced scratching behavior when used in combination with mecamylamine hydrochloride [2]: completely disappeared
